Laboratory results reported in patent US20060029674A1, “Stable amorphous Cefdinir” (priority 2004, published 2006).

Experiments:
[1] = Physical stability of the isolated amorphous material; type: physicochemical; settings: isolated by evaporating a methanolic solution
Description: Amorphous Cefdinir was isolated by evaporating a methanolic solution of cefdinir hydrate. […] Stable amorphous Cefdinir with Eudragit EPO was made and isolated by evaporating a methanolic solution. […] Amorphous cefdinir with PVP was made and isolated by evaporating a methanolic solution.

[2] = Glass transition temperature (Tg) by thermally stimulated current spectroscopy; type: physicochemical
Experimental: The glass transition temperature (Tg) determined by thermally stimulated current spectroscopy was 67° C. This value of 67° C. is considerably higher than ambient temperature, and as a rule of thumb high Tg values are desirable for room temperature stability.
The glass transition temperature (Tg) determined by thermally stimulated current spectroscopy was 102° C. […] The higher Tg observed for the cefdinir-EPO sample relative to the individual components further confirms specific interaction.
The glass transition temperature (Tg) determined by thermally stimulated current spectroscopy was 95° C.

[3] = material taught in U.S. Pat. No. 4,559,334; cited from earlier work

SMILES: C=CC1=C(C(=O)O)N2C(=O)C(NC(=O)C(=NO)c3csc(N)n3)[C@H]2SC1 (single isomer, unassigned) [Amorphous Cefdinir, 7-[2-(2-aminothiazol-4-yl)-2-hydroxyiminoacetamido]-3-vinyl-3-cephem-4-carboxylic acid (syn isomer)]
- physical stability of the amorphous material [1]: physically stable
- glass transition temperature (Tg) [2]: 67 °C

SMILES: C=CC1=C(C(=O)O)N2C(=O)[C@@H](NC(=O)/C(=N\O)c3csc(N)n3)[C@H]2SC1 [crystalline-like amorphous material]
- stability of prior-art amorphous material [3]: unstable
